Test results: patent US7695930B2, “Method for the detection, identification and/or quantification of microoganisms with peptidase activity using phenoxazinone derivatives as enzyme substrates” (Biomerieux, priority 2003, dated 2010)

System: Klebsellia pneumoniae
Experiment: Leucine-peptidase detection on agar medium (Example 11); for color of the colony: key: B corresponds to fluorescent blue; R corresponds to pink
Type: cell-based

Substance: leucine-9-aminobenzo[a]phenoxazin-5-one [Leu-ABP]
- color of the colony (24 h, 25 mg/l): R
- growth diameter (24 h, 25 mg/l): 1.8 mm
- intensity of coloration, scale 0 to 4 (24 h, 25 mg/l): 1.5
- color of the colony (24 h, 50 mg/l): R
- growth diameter (24 h, 50 mg/l): 1.7 mm
- intensity of coloration, scale 0 to 4 (24 h, 50 mg/l): 1.5
- color of the colony (24 h, 100 mg/l): R
- growth diameter (24 h, 100 mg/l): 1.7 mm
- intensity of coloration, scale 0 to 4 (24 h, 100 mg/l): 1.5
- color of the colony (24 h, 200 mg/l): R
- growth diameter (24 h, 200 mg/l): 1.7 mm
- intensity of coloration, scale 0 to 4 (24 h, 200 mg/l): 2
- color of the colony (24 h, 400 mg/l): R
- growth diameter (24 h, 400 mg/l): 1.7 mm
- intensity of coloration, scale 0 to 4 (24 h, 400 mg/l): 2.5
- color of the colony (48 h, 25 mg/l): R
- growth diameter (48 h, 25 mg/l): 1.8 mm
- intensity of coloration, scale 0 to 4 (48 h, 25 mg/l): 2
- color of the colony (48 h, 50 mg/l): R
- growth diameter (48 h, 50 mg/l): 1.7 mm
- intensity of coloration, scale 0 to 4 (48 h, 50 mg/l): 2.5
- color of the colony (48 h, 100 mg/l): R
- growth diameter (48 h, 100 mg/l): 1.7 mm
- intensity of coloration, scale 0 to 4 (48 h, 100 mg/l): 1.5
- color of the colony (48 h, 200 mg/l): R
- growth diameter (48 h, 200 mg/l): 1.7 mm
- intensity of coloration, scale 0 to 4 (48 h, 200 mg/l): 1
- color of the colony (48 h, 400 mg/l): R
- growth diameter (48 h, 400 mg/l): 1.8 mm
- intensity of coloration, scale 0 to 4 (48 h, 400 mg/l): 1
